# Article PMC6017736, “Indole-3-Carbonitriles as DYRK1A Inhibitors by Fragment-Based Drug Design” (Molecules : A Journal of Synthetic Chemistry and Natural …, 2018)
# Marks after values point to notes of the source that are not given here.
# How the values were obtained:
# DYRK3 = biological target: T1, DYRK3 (Homo sapiens, UniProt O43781); test: Protein kinase assay ([γ-33P]-ATP, RS peptide substrate), DYRK3; assay type: biochemical; details: for IC50: 15 µM ATP; for inhibition at 10 µM: 10 µM compound, read-out: Inhibition at 10 µM DYRK3 (class symbol)
# T1 sequence (O43781 1-588): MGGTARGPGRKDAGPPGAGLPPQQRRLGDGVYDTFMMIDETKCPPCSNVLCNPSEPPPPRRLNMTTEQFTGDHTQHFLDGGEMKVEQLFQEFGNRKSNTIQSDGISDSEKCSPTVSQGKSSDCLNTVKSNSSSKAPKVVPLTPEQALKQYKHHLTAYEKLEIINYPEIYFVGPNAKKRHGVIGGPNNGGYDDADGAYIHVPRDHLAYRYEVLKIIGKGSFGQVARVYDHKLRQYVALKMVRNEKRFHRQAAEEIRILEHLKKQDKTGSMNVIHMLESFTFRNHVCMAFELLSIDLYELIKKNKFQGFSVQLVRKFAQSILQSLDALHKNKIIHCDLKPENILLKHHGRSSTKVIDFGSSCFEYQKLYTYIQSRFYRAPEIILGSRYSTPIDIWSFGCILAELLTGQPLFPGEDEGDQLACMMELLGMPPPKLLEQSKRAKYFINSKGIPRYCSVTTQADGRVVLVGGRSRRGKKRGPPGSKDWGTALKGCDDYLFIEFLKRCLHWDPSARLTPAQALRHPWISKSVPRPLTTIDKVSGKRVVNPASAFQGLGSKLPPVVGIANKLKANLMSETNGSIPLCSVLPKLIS
# Description: (§1) DYRK1A, 1B, 2, 3 (human, recombinant, expressed in E. coli as GST fusion proteins) and CLK1, 2, 3, and 4 (mouse, recombinant, expressed in E. coli as GST fusion proteins) were assayed as described for GSK-3 in Buffer A (supplemented extemporaneously with 0.15 mg BSA/mL + 1 mM DTT) with 1 µg of RS peptide ([…]) as a substrate.
# [1] = Thermodynamic solubility, shake-flask method with HPLC quantification; assay type: physicochemical; details: phosphate buffer pH 7.4, 25 °C
# Description: For solubility assays an aqueous phosphate buffer pH 7.4 was used. The buffer was prepared by dissolving Na2HPO4 × 2 H2O (298 mg), KH2PO4 (19 mg) and NaCl (800 mg) in water (100 mL). The pH was adjusted to 7.4 by addition of hydrochloric acid. The thermodynamic solubility was determined using a shake-flask method with quantification by a HPLC method. The test compounds (500 µg) were incubated with aqueous phosphate buffer pH 7.4 (400 µL) in sealed Whatman MiniUniPrep vials (GE Healthcare, Freiburg, Germany). The mixtures were shaken at 25 °C and 400 rpm for 24–96 h (IKA KS 3000 ic control, IKA-Werke, Staufen, Germany). After 24 h, 48 h and 72 h, the mixtures were visually inspected for remaining solids and the solids were filtered off. The concentrations in the resulting saturated solutions were quantified by isocratic HPLC using calibration with external standard. If equilibrium was not reached after 72 h, solubility of a further sample was determined after 96 h. For calibration, a stock solution of 10 mM of the test compounds in DMSO was prepared and the stock solution was diluted with ACN to suitable concentrations. The AUC at the wavelength maxima was used for quantification.
# CLK3 = CLK3 (Mus musculus, UniProt O35492); test: Protein kinase assay ([γ-33P]-ATP, RS peptide substrate), CLK3; assay type: biochemical; details: for IC50: 15 µM ATP; for inhibition at 10 µM: 10 µM compound, read-out: Inhibition at 10 µM CLK3 (class symbol)
# Description: as §1
# CLK4 = CLK4 (Mus musculus, UniProt O35493); test: Protein kinase assay ([γ-33P]-ATP, RS peptide substrate), CLK4; assay type: biochemical; details: 15 µM ATP
# Description: as §1
# GSK-3 = test: Protein kinase assay ([γ-33P]-ATP, GS-1 substrate), GSK-3; details: for IC50: read-out: IC50 GSK3, 15 µM ATP
# Description: First, the kinases were incubated with 10 µM solutions of the compounds and the residual activities compared to controls were measured.
# Controls were performed with appropriate dilutions of DMSO. The GS-1 and RS peptide substrates were obtained from Proteogenix (Oberhausbergen, France).
# After 30 min incubation at 30 °C, the reaction was stopped by harvesting onto P81 phosphocellulose supernatant (Whatman) using a FilterMate harvester (Packard) and washing in 1% phosphoric acid. Scintillation fluid was added and the radioactivity measured in a Packard counter [52].
# All data points for construction of dose response curves were recorded in triplicate.
# DYRK2 = biological target: T2, DYRK2 (Homo sapiens, UniProt Q92630); test: Protein kinase assay ([γ-33P]-ATP, RS peptide substrate), DYRK2; assay type: biochemical; details: for IC50: 15 µM ATP; for inhibition at 10 µM: 10 µM compound, read-out: Inhibition at 10 µM DYRK2 (class symbol)
# T2 sequence (Q92630 1-601): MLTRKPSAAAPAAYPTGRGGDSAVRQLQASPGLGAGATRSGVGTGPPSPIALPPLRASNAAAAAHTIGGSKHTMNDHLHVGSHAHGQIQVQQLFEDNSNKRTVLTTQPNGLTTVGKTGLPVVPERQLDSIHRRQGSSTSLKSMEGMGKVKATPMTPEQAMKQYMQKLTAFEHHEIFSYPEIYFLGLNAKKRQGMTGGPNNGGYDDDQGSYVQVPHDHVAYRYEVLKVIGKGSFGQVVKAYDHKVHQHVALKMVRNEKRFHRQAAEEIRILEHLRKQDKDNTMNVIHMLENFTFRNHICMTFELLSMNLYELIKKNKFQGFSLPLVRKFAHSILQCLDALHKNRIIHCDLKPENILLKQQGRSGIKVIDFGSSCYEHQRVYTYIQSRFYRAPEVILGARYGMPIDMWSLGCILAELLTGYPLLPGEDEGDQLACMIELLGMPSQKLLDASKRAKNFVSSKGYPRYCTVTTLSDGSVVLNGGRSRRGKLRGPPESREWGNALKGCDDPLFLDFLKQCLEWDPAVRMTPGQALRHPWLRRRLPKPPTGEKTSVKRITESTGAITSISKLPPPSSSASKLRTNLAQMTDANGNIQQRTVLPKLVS
# Description: as §1
# DYRK1B = DYRK1B (Homo sapiens, UniProt Q9Y463); test: Protein kinase assay ([γ-33P]-ATP, RS peptide substrate), DYRK1B; assay type: biochemical; details: 15 µM ATP; read-out: IC50 DYRK 1B
# Description: as §1
# CLK2 = CLK2 (Mus musculus, UniProt O35491); test: Protein kinase assay ([γ-33P]-ATP, RS peptide substrate), CLK2; assay type: biochemical; details: 15 µM ATP
# Description: as §1
# [2] = Kinetic solubility, laser nephelometry; assay type: physicochemical; details: phosphate buffer pH 7.4, nephelometry
# Description: The kinetic solubility was determined using laser nephelometry. A stock solution of the test compounds in DMSO was prepared and further diluted with DMSO to achieve a dilution series of 8–12 solutions with different concentrations. The DMSO solutions (2 µL) were placed in a row on a 96-well plate and diluted with aqueous phosphate buffer pH 7.4 (198 µL). The well plate was scanned by a nephelometer (Nephelostar Plus, BMG Labtech, Ortenberg, Germany). Unsolved particles scatter the laser light which is detected by the nephelometer. The intensity of the scattered light is proportional to the particle concentration in the suspension. The intensity of the scattered light was plotted versus the concentration to obtain a kick off curve. The concentration at which the compounds began to precipitate was directly read out from the kick off curve.
# CLK1 = CLK1 (Mus musculus, UniProt P22518); test: Protein kinase assay ([γ-33P]-ATP, RS peptide substrate), CLK1; assay type: biochemical; details: 15 µM ATP
# Description: as §1
# [3] = Cytotoxicity, cell viability by tetrazolium dye assay (XTT assay); assay type: cell-based; details: human, HeLa cells, read-out: Viability of treated HeLa cells relative to control cells
# Description: To evaluate the applicability of the 2-substituted indole-3-carbonitrile compounds in cell culture experiments, we assessed toxicity of 6f, 6h, 6s and 13b on HeLa cells by viability assays (Table 4).
# The inhibitors were added to the cultured cells from stock solutions in DMSO to the desired final concentration. For cytotoxicity assays, HeLa cells were grown in 96-well plates (20,000–30,000 cells per well) and incubated with the test compounds for 3 days before cell viability was evaluated with the help of a tetrazolium dye assay (XTT assay, AppliChem GmbH, Darmstadt, Germany).
# DYRK1A [4] = biological target: T3, DYRK1A (Homo sapiens, UniProt Q13627); test: Protein kinase assay ([γ-33P]-ATP, RS peptide substrate), DYRK1A; assay type: biochemical; details: 15 µM ATP; read-out: IC50 DYRK 1A
# DYRK1A [5] = biological target: T3, DYRK1A; test: Ligand-lipophilicity efficiency (pIC50 minus calculated logP)
# Description: All new compounds were evaluated based on their physicochemical properties regarding Lipinski’s rule of five and the ligand-lipophilicity efficiency (LLE). Both concepts are used to assess the druglikeness of drug development candidates. […] LLE is calculated from pIC50 minus calculated logP [46].
# [6] = pIC50 (DYRK1A) minus calculated logP
# Chain of CLK1 (P22518 whole entry): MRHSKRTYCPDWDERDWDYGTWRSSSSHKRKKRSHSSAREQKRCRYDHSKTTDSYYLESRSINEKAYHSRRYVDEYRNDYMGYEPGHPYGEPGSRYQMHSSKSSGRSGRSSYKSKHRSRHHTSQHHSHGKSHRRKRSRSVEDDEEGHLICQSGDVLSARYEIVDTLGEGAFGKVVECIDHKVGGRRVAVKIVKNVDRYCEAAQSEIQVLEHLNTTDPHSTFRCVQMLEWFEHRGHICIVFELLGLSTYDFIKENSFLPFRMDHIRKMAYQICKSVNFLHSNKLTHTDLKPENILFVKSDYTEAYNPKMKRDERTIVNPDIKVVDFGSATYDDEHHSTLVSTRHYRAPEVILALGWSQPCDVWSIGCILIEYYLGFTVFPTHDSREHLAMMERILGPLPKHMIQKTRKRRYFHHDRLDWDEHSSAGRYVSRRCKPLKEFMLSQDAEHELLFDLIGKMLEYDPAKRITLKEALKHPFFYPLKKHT
# Chain of DYRK1B (Q9Y463 whole entry): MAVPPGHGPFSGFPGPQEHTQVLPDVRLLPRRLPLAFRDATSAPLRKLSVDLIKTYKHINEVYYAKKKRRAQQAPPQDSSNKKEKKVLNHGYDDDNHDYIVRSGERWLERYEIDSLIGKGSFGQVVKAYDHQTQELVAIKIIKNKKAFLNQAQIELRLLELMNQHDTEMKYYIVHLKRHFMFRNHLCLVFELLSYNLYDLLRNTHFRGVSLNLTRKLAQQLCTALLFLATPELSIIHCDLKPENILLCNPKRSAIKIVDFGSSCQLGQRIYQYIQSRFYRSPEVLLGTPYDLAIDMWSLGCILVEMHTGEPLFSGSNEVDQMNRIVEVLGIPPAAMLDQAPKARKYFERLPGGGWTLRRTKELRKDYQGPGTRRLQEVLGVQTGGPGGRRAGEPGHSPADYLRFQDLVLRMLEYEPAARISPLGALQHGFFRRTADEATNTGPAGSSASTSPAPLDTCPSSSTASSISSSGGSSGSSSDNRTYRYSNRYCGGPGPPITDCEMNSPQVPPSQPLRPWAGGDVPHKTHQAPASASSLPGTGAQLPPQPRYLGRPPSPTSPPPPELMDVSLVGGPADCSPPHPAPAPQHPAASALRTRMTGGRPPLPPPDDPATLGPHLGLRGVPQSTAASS
# Chain of CLK3 (O35492 whole entry): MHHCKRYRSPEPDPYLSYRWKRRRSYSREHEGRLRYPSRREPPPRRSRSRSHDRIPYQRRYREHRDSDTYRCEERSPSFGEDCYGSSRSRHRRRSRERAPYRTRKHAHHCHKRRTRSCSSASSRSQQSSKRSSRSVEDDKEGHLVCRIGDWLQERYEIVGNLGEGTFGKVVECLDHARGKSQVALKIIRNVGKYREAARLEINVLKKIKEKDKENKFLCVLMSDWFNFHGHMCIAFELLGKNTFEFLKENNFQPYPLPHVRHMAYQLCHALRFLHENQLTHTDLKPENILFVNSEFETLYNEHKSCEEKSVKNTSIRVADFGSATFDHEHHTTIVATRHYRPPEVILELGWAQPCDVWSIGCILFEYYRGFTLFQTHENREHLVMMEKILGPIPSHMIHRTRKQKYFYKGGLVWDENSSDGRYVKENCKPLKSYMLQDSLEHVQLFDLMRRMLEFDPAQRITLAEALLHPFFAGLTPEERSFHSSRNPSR
# Chain of CLK4 (O35493 whole entry): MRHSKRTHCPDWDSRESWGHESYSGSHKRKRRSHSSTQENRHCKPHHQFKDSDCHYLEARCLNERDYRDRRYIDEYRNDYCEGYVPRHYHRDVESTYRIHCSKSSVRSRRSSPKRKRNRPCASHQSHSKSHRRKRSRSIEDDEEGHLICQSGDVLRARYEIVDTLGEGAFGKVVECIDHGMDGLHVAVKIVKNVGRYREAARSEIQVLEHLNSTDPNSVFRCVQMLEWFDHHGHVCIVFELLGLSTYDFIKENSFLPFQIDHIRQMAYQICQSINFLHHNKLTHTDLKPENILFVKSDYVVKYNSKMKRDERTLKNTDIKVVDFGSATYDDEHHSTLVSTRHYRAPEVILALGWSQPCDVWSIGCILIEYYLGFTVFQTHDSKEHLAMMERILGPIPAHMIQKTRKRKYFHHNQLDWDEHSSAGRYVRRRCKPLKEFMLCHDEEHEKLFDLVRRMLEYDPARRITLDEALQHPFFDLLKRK
# Chain of CLK2 (O35491 whole entry): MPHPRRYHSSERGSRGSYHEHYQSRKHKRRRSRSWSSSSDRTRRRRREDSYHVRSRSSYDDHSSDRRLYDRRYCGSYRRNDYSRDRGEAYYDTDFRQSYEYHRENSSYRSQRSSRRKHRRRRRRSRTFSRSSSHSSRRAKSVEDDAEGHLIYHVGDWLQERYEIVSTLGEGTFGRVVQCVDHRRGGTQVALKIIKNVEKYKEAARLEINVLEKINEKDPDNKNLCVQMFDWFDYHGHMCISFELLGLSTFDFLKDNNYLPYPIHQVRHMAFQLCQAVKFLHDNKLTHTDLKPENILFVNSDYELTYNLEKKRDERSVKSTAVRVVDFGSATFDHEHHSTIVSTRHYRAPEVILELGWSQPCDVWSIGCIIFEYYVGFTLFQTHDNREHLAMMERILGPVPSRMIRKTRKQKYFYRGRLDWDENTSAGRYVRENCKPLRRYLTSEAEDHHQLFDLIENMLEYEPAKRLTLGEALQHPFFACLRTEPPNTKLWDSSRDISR
SMILES,IC50 (DYRK3) [nM],"Sexp., therm., pH 7.4 [1]",IC50 (CLK3) [nM],IC50 (CLK4) [nM],IC50 (GSK-3) [nM],IC50 (DYRK2) [nM],IC50 (DYRK1B) [nM],IC50 (CLK2) [nM],"Sexp., kin., pH 7.4 [2]",IC50 (CLK1) [nM],"viability at 3 days, 1 µM [3] [%]","viability at 3 days, 3 µM [3] [%]","viability at 3 days, 10 µM [3] [%]",IC50 (DYRK1A [4]) [nM],LLE (DYRK1A [5]; Table S2),LLE (DYRK1A [5]; [6]),inhibition at 10 µM (DYRK3) [%],inhibition at 10 µM (CLK3) [%],inhibition at 10 µM (DYRK2) [%],Inhibition at 10 µM GSK3 (class symbol) (GSK-3; 10 µM compound)
"N#Cc1c[nH]c2c(Cl)cccc12 [Compound 6a, 7-Chloro-1H-indole-3-carbonitrile]",> 10000,143 ± 6.3^c µM,> 10000,> 10000,> 10000,> 10000,> 10000,> 10000,116 ± 14 µM,–,–,–,–,–,–,–,–,–,–,–
"N#Cc1c[nH]c2c(Br)cccc12 [Compound 6b, 7-Bromo-1H-indole-3-carbonitrile]",> 10000,136 ± 11 µM,> 10000,4000,–,> 10000,5900,> 10000,142 ± 14 µM,2900,–,–,–,–,–,–,–,–,–,–
"N#Cc1c[nH]c2c(I)cccc12 [Compound 6c, 7-Iodo-1H-indole-3-carbonitrile]",> 10000,45.2 (44.8–45.6) µM,> 10000,1800,–,8000,1800,8000,261 (254–267) µM,1900,–,–,–,–,–,–,–,–,–,–
"N#Cc1c(-c2ccccc2)[nH]c2c(Cl)cccc12 [Compound 6f, 7-Chloro-2-phenyl-1H-indole-3-carbonitrile]",> 10000,<0.5 µM,> 10000,120,–,> 10000,> 10000,> 10000,14.7 ± 4.5 µM,70,94,98,85,–,–,–,–,–,–,–
"N#Cc1c(-c2ccccc2)[nH]c2c(Br)cccc12 [Compound 6g, 7-Bromo-2-phenyl-1H-indole-3-carbonitrile]",> 10000,<0.5 µM,> 10000,33,–,> 10000,120,433,14.8 ± 0.26 µM,67,–,–,–,25,3.34,3.34,–,–,–,–
"N#Cc1c(-c2ccccc2)[nH]c2c(I)cccc12 [Compound 6h, 7-Iodo-2-phenyl-1H-indole-3-carbonitrile]",> 10000,<0.5 µM,> 10000,50,–,> 10000,570,2000,4.57 (4.11–5.03) µM,80,97,97,87,–,–,–,–,–,–,–
"N#Cc1c(-c2cccnc2)[nH]c2c(I)cccc12 [Compound 6p, 7-Iodo-2-(pyridin-3-yl)-1H-indole-3-carbonitrile]",–,–,–,> 10000,–,–,300,> 10000,10.0 (7.21–12.9) µM,200,–,–,–,80,3.89,3.89,< 20,< 20,< 20,–
"N#Cc1c(C2CC2)[nH]c2c(I)cccc12 [Compound 6r, 2-Cyclopropyl-7-iodo-1H-indole-3-carbonitrile]",> 10000,<0.5 µM,–,100,–,8000,500,1000,38.1 (37.6–38.6) µM,110,–,–,–,140,3.37,3.37,–,< 20,–,"- (-: less than 20% inhibition at 10 µM, IC50 was not determined)"
"N#Cc1c(CC(O)CO)[nH]c2c(Cl)cccc12 (centres unmarked) [Compound 14, 7-Chloro-2-(2,3-dihydroxypropyl)-1H-indole-3-carbonitrile]",–,3447 ± 182 ^c µM,–,2000,2000,–,4200,10000,–,2000,–,–,–,2000,4.59,4.59,< 20,< 20,< 20,–
"O=C(O)c1nc2ccccc2c2[nH]c3c(I)cccc3c12 [KuFal194 (5), 10-iodo-11H-indolo[3,2-c]quinoline-6-carboxylic acid, reference compound]",–,< 0.5 µM,–,–,–,–,–,–,5.28 (4.99–5.57) µM,–,78,75,45,–,–,–,–,–,–,–
